Measurements: US20260209260A1, “VECTORIZED NHC IRIDIUM(III) COMPLEXES AND USE THEREOF IN PHOTODYNAMIC THERAPY AND/OR DIAGNOSTIC” (CENTRE NATIONAL DE LA RECHERCHE SCIENTIFIQUE, priority 2022, published 2026)
Where “and” joins values, the source holds several entries; their conditions need not be identical. Equal entries are not always repeated. Where two headings read alike, the source gives them in different places.

Tests used:
[1] = UV/Vis absorption spectra; format: physicochemical; conditions: room temperature, air-saturated CH2Cl2 or CH2Cl2/MeOH (1:1), 50 μM; ε in brackets, sh = shoulder
Protocol: UV/Vis absorption spectra were recorded at RT on solutions contained in quartz cuvettes (optical pathlength 1 cm, Hellma®) with a PerkinElmer® UV/VIS/NIR spectrophotometer Lambda 950 and a PerkinElmer® detector UV/VIS/NIR Accessory 2D Detector Module.

[2] = test system: NIH-3T3 fibroblast cells (non-tumor); assay: Cell viability assay (MTT), dark and blue light; format: cell-based, Murine; conditions: for GI50: read-out: GI50; for Photosensitizing index (PI): NIH-3T3, dark vs blue light
Outline: (§1)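 MTT read-out at 570 nm after DMSO solubilization of formazan, 3–4 h MTT at 37 °C, 5% CO2. Treatment lasted 72 h, either fully in the dark or with 10 min irradiation after 8 h of dark incubation. Final DMSO fixed at 0.1% (v/v).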

[3] = test system: MC3T3 osteoblast cells (non-tumor); assay: Cell viability assay (MTT), dark and blue light; format: cell-based, Murine; conditions: for Photosensitizing index (PI): MC3T3, dark vs blue light; for GI50: read-out: GI50
Outline: as §1

[4] = Lipophilicity: octanol-water partition coefficient, shake-flask method
Outline: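 Octanol and water mutually pre-saturated for 24 h; compound ([…] stock in aqueous phase) partitioned against equal volume n-octanol, mixed 15 min, phases separated by centrifugation.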

A549 lung cancer cells = assay: Cell viability assay (MTT), dark and blue light; format: cell-based, Human; conditions: for GI50: read-out: GI50; for Photosensitizing index (PI): A549, dark vs blue light
Outline: as §1

T24 bladder cancer cells = assay: Cell viability assay (MTT), dark and blue light; format: cell-based, Human; conditions: for GI50: read-out: GI50; for Photosensitizing index (PI): T24, dark vs blue light
Outline: as §1

[5] = Luminescence emission spectra and quantum yield; format: physicochemical; conditions: room temperature; reference POPOP in hexane or rhodamine B in ethanol
Outline: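 Relative luminescence quantum yields (Demas–Crosby) were derived from integrated emission areas of sample versus reference standard, with solvent refractive-index correction, on RT solutions. Emission spectra, fluorescence and phosphorescence, were taken for the complexes in CH2Cl2 at room temperature.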

[6] = Emission lifetime measurement; format: physicochemical
Outline: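 Time-correlated single-photon counting with 0.5 ns resolution, using D2-lamp or 405 nm pulsed-diode-laser excitation, gave the lifetimes; quoted uncertainty is 5%.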

[7] = n-octanol/water, shake-flask, mean of at least three determinations

SMILES | λmax (nm) ε (M^−1 · cm^−1) [1] | GI50 ([2]; NIH-3T3, blue light) | Photosensitizing index (PI) [2] | Photosensitizing index (PI) [3] | GI50 ([3]; MC3T3, dark) | Log P [4] | GI50 (A549 lung cancer cells; A549, blue light) | SI (vs MC3T3) (A549 lung cancer cells; A549, dark) | Photosensitizing index (PI) (A549 lung cancer cells) | SI (vs MC3T3) (T24 bladder cancer cells; T24, blue light) | SI (vs NIH-3T3) (T24 bladder cancer cells; T24, blue light) | GI50 (T24 bladder cancer cells; T24, blue light) | SI (vs NIH-3T3) (T24 bladder cancer cells; T24, dark) | Photosensitizing index (PI) (T24 bladder cancer cells) | GI50 (T24 bladder cancer cells; T24, dark) | ΦP emission phosphorescence quantum yield [5] | τ1 emission lifetime [6] | GI50 ([3]; MC3T3, blue light) | Log P [4, 7] | GI50 (A549 lung cancer cells; A549, dark) | further results
F[P-](F)(F)(F)(F)F.O=C(NCCCn1cc[n+]2[c]1[Ir-3]13([c]4ccccc4-c4c5ccccc5cc[n+]41)([c]1ccccc1-c1c4ccccc4cc[n+]13)[n+]1ccccc1-2)[c-]1cccc1.[Fe+2].c1cc[cH-]c1 [IV-h] | 334 (sh) (19440), 351 (sh) (18355), 380 (12745), 435 (7870) nm (M^−1 · cm^−1) | 4.4 µM | 3.0 | 3.8 | 17.1 µM | 0.81 ± 0.07 | 0.27 µM | 3.4 | 18.9 | 45.0 | 44.0 | 0.1 µM | 10.2 | 13.0 | 1.3 µM | 0.07% | 178 ns | – | – | – | –
F[P-](F)(F)(F)(F)F.O=C(NCCCn1cc[n+]2[c]1[Ir-3]13([c]4cccc5ccc6ccc[n+]1c6c45)([c]1cccc4ccc5ccc[n+]3c5c14)[n+]1ccccc1-2)[c-]1cccc1.[Fe+2].c1cc[cH-]c1 [IV-i] | 318 (25600), 413 (7410) nm (M^−1 · cm^−1) | 17.8 µM | 2.3 | 1.0 | 10 µM | – | 1 µM | 2.2 | 4.6 | 27.2 | 50.4 | 0.35 µM | 23.2 | 5.1 | – | 0.02% | 205 ns | 10 µM | 0.74 ± 0.02 | 4.6 µM | SI (vs NIH-3T3) (A549 lung cancer cells; A549, blue light): 17.8
F[P-](F)(F)(F)(F)F.O=C(NCCCn1cc[n+]2[c]1[Ir-3]13([c]4c(sc5ccccc45)-c4cccc[n+]41)([c]1c(sc4ccccc14)-c1cccc[n+]13)[n+]1ccccc1-2)[c-]1cccc1.[Fe+2].c1cc[cH-]c1 [IV-j] | 322 (15400), 342 (sh) (14040), 434 (6150) nm (M^−1 · cm^−1) | 14 µM | 4.5 | 4.2 | – | 1.07 ± 0.07 | 0.37 µM | 2.5 | 17.6 | – | 108.5 | 0.13 µM | 22.7 | 21.5 | 2.8 µM | 0.01% | 196 ns | 3.9 µM | – | 6.5 µM | GI50 ([2]; NIH-3T3, dark): 62.8 µM; SI (vs NIH-3T3) (A549 lung cancer cells; A549, dark): 9.7
F[P-](F)(F)(F)(F)F.O=C(NCCCn1cc[n+]2[c]1[Ir-3]13([c]4ccccc4-c4sc5ccccc5[n+]41)([c]1ccccc1-c1sc4ccccc4[n+]13)[n+]1ccccc1-2)[c-]1cccc1.[Fe+2].c1cc[cH-]c1 [IV-k] | 321 (24910), 371 (sh) (7200), 407 (5940) nm (M^−1 · cm^−1) | 11.6 µM | 1.6 | 2.3 | 10.2 µM and 11.6 µM | – | 0.34 µM | 2.7 | 11.2 | 27.0 | – | – | 20.9 | 4.7 | – | 0.08% | 212 ns | 5.1 µM | 0.74 ± 0.05 | 3.8 µM | GI50 ([2]; NIH-3T3, dark): 18.7 µM; SI (vs MC3T3) (A549 lung cancer cells; A549, blue light): 15.0; SI (vs NIH-3T3) (A549 lung cancer cells; A549, blue light): 34.2; SI (vs MC3T3) (T24 bladder cancer cells; T24, dark): 11.4
